Compared with `FC(F)(F)c1ccc(-c2cc(Oc3cccc4cnccc34)nnc2Oc2cccc3cnccc23)cc1`, `CC(c1ccc2c(=O)c3ccccc3ccc2c1)C1N(c2ccccc2)CCN1c1ccccc1` (stereo not given) is lower in melting point: 197 to 199 °C for the first, 81 to 89 °C for the second.

Compared with `C=CCc1c(O)ccc2c(C)c(CC(=O)OC)c(=O)oc12`, `COc1ccc2[nH]c(C)c(CCNC(=O)C3CC3)c2c1` is lower in melting point: 160 to 162 °C for the first, 102 to 103 °C for the second.

First: O=C(/C=C/c1c[nH]c2ccc(O)cc12)c1ccncc1
Second: OCc1cc2cc(OCc3ccccc3)ccc2[nH]1
The melting point of the first is higher: 262 to 268 °C for the first, 106 to 107 °C for the second.

First: Cc1ccc(S(=O)(=O)N2[C@@H](c3noc(C)n3)CC[C@H]2c2ccc(F)cc2)cc1 (racemic)
Second: Cc1ccc(C2=C(c3ccc(S(C)(=O)=O)cc3)CN(C)C2=O)c(C)c1
The melting point of the first is higher: 115 °C for the first, 59 to 61 °C for the second.

Compared with `CCCCCCCCCCCCCCCCOc1ccc(OCC(=O)Nc2ccccc2CO)cc1`, `CCOC(=O)c1cn(-c2cccc(Oc3ccc(Cl)cc3)c2)cn1` is lower in melting point: 128 to 131 °C for the first, 112 to 113 °C for the second.

First: COCC1CCCN(c2ccnc3sc(C(N)=O)c(N)c23)C1 (stereo not given)
Second: CC1CCN(C(=O)C2Cc3ccccc3N2c2ccc(=O)n(C)n2)C1 (stereo not given)
The melting point of the first is higher: 229 to 230 °C for the first, 150 to 154 °C for the second.

Compared with `CCNC(=O)c1ccc(N2CCN(Cc3cc(C)c4c(c3)NC(=O)C(C)O4)CC2)c(Cl)c1` (stereo not given), `CN1CCN(CCCNc2ccc(-n3cc(C(F)(F)F)ccc3=O)c(Cl)c2)CC1` is lower in melting point: 227 to 228 °C for the first, 129 to 132 °C for the second.

First: O=CC1Cc2cc(C(=O)c3cccs3)c(Cl)c(Cl)c2O1 (stereo not given)
Second: COc1cc(NC(=O)C(C#N)=CNc2ccc(OC)c(Br)c2)c(Cl)cc1Cl
The melting point of the first is lower: 162 to 164 °C for the first, > 250 °C for the second.

Compared with `C=C(C)c1ccc2occ(C#N)c(=O)c2c1`, `Cc1c(C#N)cc2ccc3c(c2c1Br)C(C)(C)C(=O)O3` is higher in melting point: 142 to 144 °C for the first, 235 to 237 °C for the second.

First: CCOC1CCN(C(=O)c2cc(-c3ccccc3)c(=O)n3ccc4ccsc4c23)C1 (stereo not given)
Second: Cc1ccccc1C(=O)Nc1ccc(C(=O)N2CCCC(N(C)C)c3ccccc32)c(C)c1 (stereo not given)
The melting point of the first is lower: 167 to 170 °C for the first, 183 to 185 °C for the second.

Compared with `COC(COC1CC2C3CCC4=CC(=O)CCC4(C)C3(F)C(O)CC2(C)C1(O)C(=O)CO)OC` (stereo not given), `COc1ccc(C2=NN(C3CCN(C(=O)NC(C)(C)C)CC3)C(=O)[C@@H]3CC=CC[C@H]23)cc1OC` is lower in melting point: 192 to 194 °C for the first, 164 to 166 °C for the second.

Compared with `CCCCN1C(=O)NC(Cc2ccc(C(=O)OC)cc2)C1=O` (stereo not given), `COC1(c2ccccc2)OC=C(c2ccc(CCC(=O)O)cc2)C1=O` (stereo not given) is lower in melting point: 144 °C for the first, 117 to 120 °C for the second.

First: COCCN1CCc2ccc(Nc3ncc(Cl)c(Nc4ccccc4S(=O)(=O)N4CCC(O)C4)n3)cc2CC1 (stereo not given)
Second: COc1cc(C2CCN(CC(N)=O)CC2)ccc1Nc1ncc2ccc(-c3cccc(S(=O)(=O)NC(C)(C)C)c3)n2n1
The melting point of the first is lower: 120 to 128 °C for the first, 250 to 252 °C for the second.

Compared with `COC(=O)C=Cc1cccc(NC(=O)c2cccn2C)c1`, `CC(C)NC(=O)CC(=O)C=Cc1ccccc1[N+](=O)[O-]` is higher in melting point: 89 to 90 °C for the first, 132 to 135 °C for the second.

First: COc1ccc(C2CC(O)CCC2[N+](=O)[O-])cc1OC (stereo not given)
Second: COC(=O)C(Br)c1ccc2c(c1)OCO2 (stereo not given)
The melting point of the first is higher: 126 to 127 °C for the first, 39 to 41 °C for the second.

First: CCCCC(Cc1cc(C(C)(C)C)c(O)c(C(C)(C)C)c1)(C(=O)OC1CC(C)(C)N(C(C)=O)C(C)(C)C1)C(=O)OC1CC(C)(C)N(C(C)=O)C(C)(C)C1
Second: CC(C)(C)c1cc(SCCc2n[nH]c(=O)o2)cc(C(C)(C)C)c1O
The melting point of the first is higher: 120 to 124 °C for the first, 86 to 87.5 °C for the second.

First: Cc1nnc2n1-c1sc(C#CCn3c4c(c5ccccc53)CCCC4)cc1C(c1ccccc1Cl)=NC2
Second: Cc1nc2n(c1CN(C)C)-c1ccc(Cl)cc1C(c1ccccc1Cl)=NC2
The melting point of the first is lower: 164 to 166 °C for the first, 191 to 194 °C for the second.

First: Cn1c2ccccc2c2sc3ccccc3c21
Second: Cc1ccccc1-c1cc2ncccc2c(=O)n1C
The melting point of the first is higher: 175 to 176 °C for the first, 104 to 106 °C for the second.

First: Cn1nc2c3c(c(Cl)ccc31)C(=O)c1cnccc1-2
Second: CN1CN(C(=O)c2c(F)cccc2F)C(=O)N(c2ccc(Cl)cc2)C1
The melting point of the first is higher: 244 to 245 °C for the first, 140 °C for the second.

First: O=C(O)COc1ccc(N2CC(=O)NS2(=O)=O)c(O)c1
Second: COC(=O)c1ccc(Cl)nc1C1=NC(=O)C(C)(C(C)C)N1 (stereo not given)
The melting point of the first is higher: 185 to 188 °C for the first, 102 to 104 °C for the second.

First: C#CCOc1cc(-n2nc(CC)c(CC)c2CC)c(F)cc1Cl
Second: CCCCCc1c(C(C)C)nc(C(C)C)c(CO)c1-c1ccc(F)cc1
The melting point of the first is lower: 62 to 65 °C for the first, 100 to 101 °C for the second.

First: CC(C)(C)C(=O)Nc1ccccn1
Second: Cc1cccc(C(F)(F)C(F)(F)c2ccccc2)c1C
The melting point of the first is lower: 74 to 76 °C for the first, 110 to 112 °C for the second.

First: CCOCCS(=O)(=O)c1nc[nH]n1
Second: CC(=O)Oc1cc2c(c3ccccc13)Nc1ccccc1S2=O (stereo not given)
The melting point of the first is lower: 91.5 to 92.5 °C for the first, 179 to 181 °C for the second.

First: CN(C)N=Nc1c(Br)csc1C(N)=O
Second: CC1=C(CCN(O)C(N)=O)/C(=C/c2ccc(S(C)(=O)=O)cc2)c2ccccc21
The melting point of the first is higher: 194 to 196 °C for the first, 140 to 142 °C for the second.

First: CCN(CC)C(=O)NC1C=C2c3cccc4[nH]c(Br)c(c34)CC2N(C)C1 (stereo not given)
Second: CC(=O)NS(=O)(=O)c1ccc(-c2c(Cl)nc(C(F)(F)F)nc2-c2ccc(S(C)(=O)=O)cc2)cc1
The melting point of the first is lower: 204 to 208 °C for the first, 230 to 235 °C for the second.
